According to BindingDB's records for doi:10.1016/j.bmc.2013.03.004 (University of Oxford, 2013):

Target: T1, Lysosomal acid glucosylceramidase (Bos taurus, UniProt Q2KHZ8)
T1 sequence (Q2KHZ8 whole entry): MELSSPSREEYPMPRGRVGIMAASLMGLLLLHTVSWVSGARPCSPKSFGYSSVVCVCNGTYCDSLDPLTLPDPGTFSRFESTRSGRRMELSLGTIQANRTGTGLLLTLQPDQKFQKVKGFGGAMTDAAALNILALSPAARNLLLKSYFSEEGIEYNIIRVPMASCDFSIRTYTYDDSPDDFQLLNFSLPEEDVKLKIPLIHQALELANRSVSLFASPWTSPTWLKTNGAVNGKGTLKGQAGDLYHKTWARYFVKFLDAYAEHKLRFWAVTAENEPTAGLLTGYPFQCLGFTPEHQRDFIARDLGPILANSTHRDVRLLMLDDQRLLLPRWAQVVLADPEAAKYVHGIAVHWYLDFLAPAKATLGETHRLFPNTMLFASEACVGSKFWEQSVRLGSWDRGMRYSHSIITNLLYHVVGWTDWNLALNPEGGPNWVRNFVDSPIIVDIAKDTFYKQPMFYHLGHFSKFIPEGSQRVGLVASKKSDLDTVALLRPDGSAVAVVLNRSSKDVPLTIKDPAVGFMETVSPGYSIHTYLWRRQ
Test: Inhibition of bovine liver beta-glucosidase

OC[C@H](O)[C@@H]1NC[C@@H]1O
IC50: 997 µM
